Patent US4223020A, “Synthetic peptides having pituitary growth hormone releasing activity” (Beckman Instruments, Inc., priority 1979, dated 1980)
Non-standard residues stand in square brackets, D forms with d. Residues, ends and D or L forms follow the SMILES beside them.

Test system: pituitaries removed from 20 day old female rats
Experiment: In vitro growth hormone release study (incubated rat pituitaries, GH radioimmunoassay)
Format: cell-based
Settings: mean ± SEM, two pituitaries in 1 ml lactated Ringer's, 36° C.
Procedure: Female rats of the CD-1 strain were housed in a constant temperature room at 24° C. with 14 hours light and 10 hours darkness. The rats were fed Purina brand rat chow ab libitum.
All studies were started between 0800 and 1000 hours.
Pituitaries were removed from 20 day old female rats. Two pituitaries were incubated at 36° C. in 1 ml of lactated Ringer's solution in 10 ml polytetrafluoroethylene beakers in a Dubnoff Shaker (90 cycles/min.). The pituitaries were incubated a total of 4 hours (P1, P2, I3, and I4). After two successive one hour preincubation periods (P1, P2), the peptide was added to the incubation medium hourly for 2 hours (I3, I4).
This in vitro study was performed in triplicate and a standard radioimmunoassay of growth hormone present in the incubation medium was performed in duplicate. The hormonal activity was calculated as the difference (Δ) of growth hormone (GH) levels between I3, I4 and P2, i.e., (I3 -P2) and (I4 -P2). P values were calculated by Students' t test using six growth hormone values for each value recorded.
The growth hormone radioimmunoassay reagents were distributed by the National Institute of Arthritis and […] (NIAMDD) program. The growth hormone values were calculated in terms of nanograms (ng) of a rat standard with a growth hormone potency of 0.61 units/mg.

NC(=O)[C@H](Cc1ccc(O)cc1)NC(=O)[C@@H](Cc1c[nH]c2ccccc12)NC(=O)[C@@H](Cc1c[nH]c2ccccc12)NC(=O)[C@@H](N)Cc1ccc(O)cc1 [H2 N--Tyr--D-Trp--D-trp--Tyr--CONH2, H2 N-Tyr-D-Trp-D-Trp-Tyr-CONH2] (H-Y[dW][dW]Y-NH2)
In vitro growth hormone release (Δ GH levels, I3-P2 and I4-P2) (0.3μg peptide): 345 ± 103 ng GH/ml incubation medium | In vitro growth hormone release (Δ GH levels, I3-P2 and I4-P2) (1μg peptide): 1111 ± 572 ng GH/ml incubation medium | In vitro growth hormone release (Δ GH levels, I3-P2 and I4-P2) (10μg peptide): 1898 ± 267 ng GH/ml incubation medium

H2 N-Tyr-D-Trp-D-Trp-Phe-CONH2 [H2 N--Tyr--D-Trp--D-Trp--Phe--CONH2]
In vitro growth hormone release (Δ GH levels, I3-P2 and I4-P2) (0.1μg peptide): 453 ± 48 ng GH/ml incubation medium | In vitro growth hormone release (Δ GH levels, I3-P2 and I4-P2) (1μg peptide): 686 ± 82 ng GH/ml incubation medium | In vitro growth hormone release (Δ GH levels, I3-P2 and I4-P2) (10μg peptide): 1790 ± 160 ng GH/ml incubation medium | In vitro growth hormone release (Δ GH levels, I3-P2 and I4-P2) (100μg peptide): 984 ± 355 ng GH/ml incubation medium
